Results published in patent publication US6358885B1, “Substituted phenylheterocyclic herbicides” (Mississippi State University, priority 1992, dated 2002).

Tests used:
Test in all cases: Test B preemergence/postemergence greenhouse plant response rating 0 to 10
cocklebur = assay type: in vivo, Xanthium pensylvanicum; conditions: for Plant response rating, Cocklebur: 0 to 10 scale
Outline: (§1)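 Test chemicals, dissolved in a non-phytotoxic solvent, were applied to soil at planting and, at the same time, over foliage of seedlings at the one to four leaf stage.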

wild buckwheat = assay type: in vivo, Polygonum convolvulus; conditions: for Plant response rating, Wild buckwheat: 0 to 10 scale; for Plant response rating (0 to 10 scale), Wild buckwheat: Rate 100 g/ha
Outline: as §1

velvetleaf = assay type: in vivo, Abutilon theophrasti; conditions: for Plant response rating, Velvetleaf: 0 to 10 scale
Outline: as §1

morningglory = assay type: in vivo, Ipomoea hederacea; conditions: for Plant response rating, Morningglory: 0 to 10 scale; for Plant response rating (0 to 10 scale), Morningglory: Rate 100 g/ha
Outline: as §1

barley = assay type: in vivo, Hordeum vulgare; conditions: for Plant response rating, Barley: 0 to 10 scale
Outline: as §1

sorghum = assay type: in vivo, Sorghum bicolor; conditions: for Plant response rating, Sorghum: 0 to 10 scale; for Plant response rating (0 to 10 scale), Sorghum: Rate 100 g/ha
Outline: as §1

chickweed = assay type: in vivo, Stellaria media; conditions: for Plant response rating, Chickweed: 0 to 10 scale
Outline: as §1

bedstraw = assay type: in vivo, Galium aparine; conditions: for Plant response rating, Bedstraw: 0 to 10 scale
Outline: as §1

soybean = assay type: in vivo, Glycine max; conditions: for Plant response rating, Soybean: 0 to 10 scale; for Plant response rating (0 to 10 scale), Soybean: Rate 100 g/ha
Outline: as §1

sugar beet = assay type: in vivo, Beta vulgaris; conditions: for Plant response rating, Sugar beet: 0 to 10 scale; for Plant response rating (0 to 10 scale), Sugar beet: Rate 100 g/ha
Outline: as §1

## Clc1ccc(-c2nc3n(c2Br)CCCC3)c(Cl)c1 [Compound 2]
cocklebur; POSTEMERGENCE, Rate 50 g/ha
  Plant response rating (0 to 10 scale), Cocklebur: 7
cocklebur; POSTEMERGENCE, Rate 100 g/ha
  Plant response rating (0 to 10 scale), Cocklebur: 7
cocklebur; POSTEMERGENCE, Rate 200 g/ha
  Plant response rating, Cocklebur: 6
cocklebur; POSTEMERGENCE, Rate 400 g/ha
  Plant response rating, Cocklebur: 8
cocklebur; PREEMERGENCE, Rate 50 g/ha
  Plant response rating, Cocklebur: 0
cocklebur; PREEMERGENCE, Rate 100 g/ha
  Plant response rating (0 to 10 scale), Cocklebur: 0
cocklebur; PREEMERGENCE, Rate 400 g/ha
  Plant response rating, Cocklebur: 0
cocklebur; Rate 200 g/ha, PREEMERGENCE
  Plant response rating, Cocklebur: 0
Wild buckwheat; POSTEMERGENCE, Rate 50 g/ha
  Plant response rating, Wild buckwheat: 10
Wild buckwheat; POSTEMERGENCE
  Plant response rating (0 to 10 scale), Wild buckwheat: 10
Wild buckwheat; POSTEMERGENCE, Rate 200 g/ha
  Plant response rating, Wild buckwheat: 10
Wild buckwheat; POSTEMERGENCE, Rate 400 g/ha
  Plant response rating, Wild buckwheat: 10
Wild buckwheat; PREEMERGENCE, Rate 50 g/ha
  Plant response rating, Wild buckwheat: 0
Wild buckwheat; PREEMERGENCE
  Plant response rating (0 to 10 scale), Wild buckwheat: 0
Wild buckwheat; PREEMERGENCE, Rate 400 g/ha
  Plant response rating, Wild buckwheat: 0
Wild buckwheat; Rate 200 g/ha, PREEMERGENCE
  Plant response rating, Wild buckwheat: 0
velvetleaf; POSTEMERGENCE, Rate 50 g/ha
  Plant response rating, Velvetleaf: 9
velvetleaf; POSTEMERGENCE, Rate 100 g/ha
  Plant response rating (0 to 10 scale), Velvetleaf: 8
velvetleaf; POSTEMERGENCE, Rate 200 g/ha
  Plant response rating, Velvetleaf: 8
velvetleaf; POSTEMERGENCE, Rate 400 g/ha
  Plant response rating, Velvetleaf: 9
velvetleaf; PREEMERGENCE, Rate 50 g/ha
  Plant response rating, Velvetleaf: 0
velvetleaf; PREEMERGENCE, Rate 400 g/ha
  Plant response rating, Velvetleaf: 4
velvetleaf; Rate 200 g/ha, PREEMERGENCE
  Plant response rating, Velvetleaf: 0
morningglory; POSTEMERGENCE, Rate 50 g/ha
  Plant response rating, Morningglory: 9
morningglory; POSTEMERGENCE
  Plant response rating (0 to 10 scale), Morningglory: 9
morningglory; POSTEMERGENCE, Rate 200 g/ha
  Plant response rating, Morningglory: 9
morningglory; POSTEMERGENCE, Rate 400 g/ha
  Plant response rating, Morningglory: 9
morningglory; PREEMERGENCE, Rate 50 g/ha
  Plant response rating, Morningglory: 0
morningglory; PREEMERGENCE
  Plant response rating (0 to 10 scale), Morningglory: 0
morningglory; PREEMERGENCE, Rate 400 g/ha
  Plant response rating, Morningglory: 2
morningglory; Rate 200 g/ha, PREEMERGENCE
  Plant response rating, Morningglory: 0
barley; POSTEMERGENCE, Rate 50 g/ha
  Plant response rating (0 to 10 scale), Barley: 2
barley; POSTEMERGENCE, Rate 100 g/ha
  Plant response rating (0 to 10 scale), Barley: 2
barley; POSTEMERGENCE, Rate 200 g/ha
  Plant response rating, Barley: 3
barley; POSTEMERGENCE, Rate 400 g/ha
  Plant response rating, Barley: 2
barley; PREEMERGENCE, Rate 50 g/ha
  Plant response rating, Barley: 0
barley; PREEMERGENCE, Rate 100 g/ha
  Plant response rating (0 to 10 scale), Barley: 0
barley; PREEMERGENCE, Rate 400 g/ha
  Plant response rating, Barley: 0
barley; Rate 200 g/ha, PREEMERGENCE
  Plant response rating, Barley: 0
sorghum; POSTEMERGENCE, Rate 50 g/ha
  Plant response rating, Sorghum: 4
sorghum; POSTEMERGENCE
  Plant response rating (0 to 10 scale), Sorghum: 4
sorghum; POSTEMERGENCE, Rate 200 g/ha
  Plant response rating, Sorghum: 5
sorghum; POSTEMERGENCE, Rate 400 g/ha
  Plant response rating, Sorghum: 5
sorghum; PREEMERGENCE, Rate 50 g/ha
  Plant response rating, Sorghum: 0
sorghum; PREEMERGENCE
  Plant response rating (0 to 10 scale), Sorghum: 0
sorghum; PREEMERGENCE, Rate 400 g/ha
  Plant response rating, Sorghum: 0
sorghum; Rate 200 g/ha, PREEMERGENCE
  Plant response rating, Sorghum: 0
chickweed; POSTEMERGENCE, Rate 50 g/ha
  Plant response rating (0 to 10 scale), Chickweed: 1
chickweed; POSTEMERGENCE, Rate 100 g/ha
  Plant response rating (0 to 10 scale), Chickweed: 2
chickweed; POSTEMERGENCE, Rate 200 g/ha
  Plant response rating, Chickweed: 2
chickweed; POSTEMERGENCE, Rate 400 g/ha
  Plant response rating, Chickweed: 2
chickweed; PREEMERGENCE, Rate 50 g/ha
  Plant response rating, Chickweed: 0
chickweed; PREEMERGENCE, Rate 100 g/ha
  Plant response rating (0 to 10 scale), Chickweed: 0
chickweed; PREEMERGENCE, Rate 400 g/ha
  Plant response rating, Chickweed: 0
chickweed; Rate 200 g/ha, PREEMERGENCE
  Plant response rating, Chickweed: 0
bedstraw; POSTEMERGENCE, Rate 50 g/ha
  Plant response rating (0 to 10 scale), Bedstraw: 3
bedstraw; POSTEMERGENCE, Rate 100 g/ha
  Plant response rating (0 to 10 scale), Bedstraw: 3
bedstraw; POSTEMERGENCE, Rate 200 g/ha
  Plant response rating, Bedstraw: 4
bedstraw; POSTEMERGENCE, Rate 400 g/ha
  Plant response rating, Bedstraw: 3
bedstraw; PREEMERGENCE, Rate 50 g/ha
  Plant response rating, Bedstraw: 0
bedstraw; PREEMERGENCE, Rate 100 g/ha
  Plant response rating (0 to 10 scale), Bedstraw: 0
bedstraw; PREEMERGENCE, Rate 400 g/ha
  Plant response rating, Bedstraw: 0
bedstraw; Rate 200 g/ha, PREEMERGENCE
  Plant response rating, Bedstraw: 3
soybean; POSTEMERGENCE, Rate 50 g/ha
  Plant response rating, Soybean: 6
soybean; POSTEMERGENCE
  Plant response rating (0 to 10 scale), Soybean: 6
soybean; POSTEMERGENCE, Rate 200 g/ha
  Plant response rating, Soybean: 6
soybean; POSTEMERGENCE, Rate 400 g/ha
  Plant response rating, Soybean: 7
soybean; PREEMERGENCE, Rate 50 g/ha
  Plant response rating, Soybean: 0
soybean; PREEMERGENCE
  Plant response rating (0 to 10 scale), Soybean: 0
soybean; PREEMERGENCE, Rate 400 g/ha
  Plant response rating, Soybean: 0
soybean; Rate 200 g/ha, PREEMERGENCE
  Plant response rating, Soybean: 0
Sugar beet; POSTEMERGENCE, Rate 50 g/ha
  Plant response rating, Sugar beet: 9
Sugar beet; POSTEMERGENCE
  Plant response rating (0 to 10 scale), Sugar beet: 9
Sugar beet; POSTEMERGENCE, Rate 200 g/ha
  Plant response rating, Sugar beet: 10
Sugar beet; POSTEMERGENCE, Rate 400 g/ha
  Plant response rating, Sugar beet: 10
Sugar beet; PREEMERGENCE, Rate 50 g/ha
  Plant response rating, Sugar beet: 0
Sugar beet; PREEMERGENCE
  Plant response rating (0 to 10 scale), Sugar beet: 0
Sugar beet; Rate 200 g/ha, PREEMERGENCE
  Plant response rating, Sugar beet: 0

## Fc1cc(Cl)c(OCc2ccccc2)cc1-c1nn2c(c1Cl)CCCC2 [Compound 22]
cocklebur; POSTEMERGENCE, Rate 50 g/ha
  Plant response rating (0 to 10 scale), Cocklebur: 7
cocklebur; POSTEMERGENCE, Rate 200 g/ha
  Plant response rating, Cocklebur: 8
cocklebur; PREEMERGENCE, Rate 50 g/ha
  Plant response rating, Cocklebur: 0
cocklebur; Rate 200 g/ha, PREEMERGENCE
  Plant response rating, Cocklebur: 1
Wild buckwheat; POSTEMERGENCE, Rate 50 g/ha
  Plant response rating, Wild buckwheat: 10
Wild buckwheat; POSTEMERGENCE, Rate 200 g/ha
  Plant response rating, Wild buckwheat: 10
Wild buckwheat; PREEMERGENCE, Rate 50 g/ha
  Plant response rating, Wild buckwheat: 2
Wild buckwheat; Rate 200 g/ha, PREEMERGENCE
  Plant response rating, Wild buckwheat: 5
velvetleaf; POSTEMERGENCE, Rate 50 g/ha
  Plant response rating, Velvetleaf: 6
velvetleaf; POSTEMERGENCE, Rate 200 g/ha
  Plant response rating, Velvetleaf: 9
velvetleaf; PREEMERGENCE, Rate 50 g/ha
  Plant response rating, Velvetleaf: 4
velvetleaf; Rate 200 g/ha, PREEMERGENCE
  Plant response rating, Velvetleaf: 5
morningglory; POSTEMERGENCE, Rate 50 g/ha
  Plant response rating, Morningglory: 5
morningglory; POSTEMERGENCE, Rate 200 g/ha
  Plant response rating, Morningglory: 9
morningglory; PREEMERGENCE, Rate 50 g/ha
  Plant response rating, Morningglory: 2
morningglory; Rate 200 g/ha, PREEMERGENCE
  Plant response rating, Morningglory: 2
barley; POSTEMERGENCE, Rate 50 g/ha
  Plant response rating (0 to 10 scale), Barley: 4
barley; POSTEMERGENCE, Rate 200 g/ha
  Plant response rating, Barley: 5
barley; PREEMERGENCE, Rate 50 g/ha
  Plant response rating, Barley: 0
barley; Rate 200 g/ha, PREEMERGENCE
  Plant response rating, Barley: 0
sorghum; POSTEMERGENCE, Rate 50 g/ha
  Plant response rating, Sorghum: 5
sorghum; POSTEMERGENCE, Rate 200 g/ha
  Plant response rating, Sorghum: 5
sorghum; PREEMERGENCE, Rate 50 g/ha
  Plant response rating, Sorghum: 0
sorghum; Rate 200 g/ha, PREEMERGENCE
  Plant response rating, Sorghum: 3
chickweed; POSTEMERGENCE, Rate 200 g/ha
  Plant response rating, Chickweed: 7
chickweed; PREEMERGENCE, Rate 50 g/ha
  Plant response rating, Chickweed: 0
chickweed; Rate 200 g/ha, PREEMERGENCE
  Plant response rating, Chickweed: 2
bedstraw; POSTEMERGENCE, Rate 50 g/ha
  Plant response rating (0 to 10 scale), Bedstraw: 8
bedstraw; POSTEMERGENCE, Rate 200 g/ha
  Plant response rating, Bedstraw: 8
bedstraw; Rate 200 g/ha, PREEMERGENCE
  Plant response rating, Bedstraw: 10
soybean; POSTEMERGENCE, Rate 50 g/ha
  Plant response rating, Soybean: 5
soybean; POSTEMERGENCE, Rate 200 g/ha
  Plant response rating, Soybean: 6
soybean; PREEMERGENCE, Rate 50 g/ha
  Plant response rating, Soybean: 0
soybean; Rate 200 g/ha, PREEMERGENCE
  Plant response rating, Soybean: 2
Sugar beet; POSTEMERGENCE, Rate 50 g/ha
  Plant response rating, Sugar beet: 9
Sugar beet; POSTEMERGENCE, Rate 200 g/ha
  Plant response rating, Sugar beet: 6
Sugar beet; PREEMERGENCE, Rate 50 g/ha
  Plant response rating, Sugar beet: 1
Sugar beet; Rate 200 g/ha, PREEMERGENCE
  Plant response rating, Sugar beet: 9
